Experimental data as given in patent US20110201818A1, “POLO-LIKE KINASE INHIBITORS” (TAKEDA PHARMACEUTICAL COMPANY LIMITED, priority 2007, published 2011).

Target: T1, human PLK1 (Homo sapiens, UniProt P53350)
T1 construct: FLAG (DYKDDDDK) (N); made in house; host or cells: Sf21 insect cells, recombinant baculovirus (pFASTBAC1, Bac-to-Bac)
Experiment: PLK1 in vitro enzymatic activity assay (phosphorylation of alpha casein by recombinant PLK1)
Assay type: biochemical
Conditions: recombinant FLAG-tagged PLK1, alpha casein substrate, 500 nmol/L ATP, 40 min at room temperature; read-out: pIC50 (PLK1) (converted)
Protocol: PCR was performed using the vector as a template. […] After XbaI and XhoI digestion of the PCR product, the fragment was subcloned into pFASTBAC1 (Invitrogen, USA). Recombinant baculoviruses were prepared according to the procedure of the Bac-to-Bac baculovirus expression system (Invitrogen, USA). Sf21 cells were purchased from Invitrogen and grown in Sf-900 II SFM medium containing 10% fetal bovine serum, 50 μg/mL gentamicin and 0.1% pluronic F-68 (Invitrogen, USA) at 28° C. For preparation of PLK1 enzyme, Sf21 cells were infected with recombinant baculoviruses and cultured at 28° C. for 72 h.
The inhibition of PLK1 by the compounds was determined with the following assay that measures the phosphorylation of alpha casein by recombinant PLK1. Kinase reactions were performed at room temperature for 40 min in the kinase reaction buffer (25 mmol/L HEPES, pH 7.5, 10 mmol/L magnesium acetate, 1 mmol/L dithiothreitol) containing 50 ng PLK1 enzyme, 0.1 μCi [γ-^32P]ATP, 500 nmol/L ATP and 3 μg alpha casein (MP Biomedicals Inc., USA) in a final volume of 50 μL. The incubation was terminated by the addition of 10% trichloroacetic acid (Wako, Japan). Phosphorylated proteins were filtrated in GF/C filter plates (Packard, USA) with a Cell harvester (Packard, USA) and washed out free [γ-^32P]-ATP with 250 mmol/L phosphoric acid. Then, the plates were air dried for 60 min at 45° C., followed by the addition of 20 μL of MicroScint-O (Packard, USA). The radioactivity was counted by a Top-count scintillation counter (Packard, USA).

T1 sequence (P53350 with tags, fused parts or gaps): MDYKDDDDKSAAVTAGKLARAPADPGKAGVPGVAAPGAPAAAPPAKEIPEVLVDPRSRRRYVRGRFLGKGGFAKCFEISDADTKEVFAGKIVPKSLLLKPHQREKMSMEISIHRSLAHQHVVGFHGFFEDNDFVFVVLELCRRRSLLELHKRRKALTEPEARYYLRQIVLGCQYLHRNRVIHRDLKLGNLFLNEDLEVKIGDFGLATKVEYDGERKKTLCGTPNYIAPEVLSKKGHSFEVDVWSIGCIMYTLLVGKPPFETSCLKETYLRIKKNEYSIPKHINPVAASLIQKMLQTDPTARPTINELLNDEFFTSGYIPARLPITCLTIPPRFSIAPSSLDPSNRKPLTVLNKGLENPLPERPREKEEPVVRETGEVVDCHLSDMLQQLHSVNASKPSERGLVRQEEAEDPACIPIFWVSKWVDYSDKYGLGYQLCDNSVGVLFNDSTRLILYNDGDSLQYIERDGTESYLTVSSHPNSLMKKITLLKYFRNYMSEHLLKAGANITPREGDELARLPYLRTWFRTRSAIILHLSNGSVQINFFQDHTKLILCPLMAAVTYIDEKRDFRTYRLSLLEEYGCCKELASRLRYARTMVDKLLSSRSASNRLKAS

| IC50 | SMILES |
| --- | --- |
| ≤ 2 nM | COc1cc(C(=O)N[C@@H]2CCCC[C@@H]2O)ccc1Nc1ncc2c(n1)N(C1CCCCC1)CC(F)(F)C(=O)N2C (racemic) [Compound 47, 4-(9-cyclohexyl-7,7-difluoro-5-methyl-6-oxo-6,7,8,9-tetrahydro-5H-pyrimido[4,5-b][1,4]diazepin-2-ylamino)-N-((cis)-2-hydroxycyclohexyl)-3-methoxybenzamide] |
| ≤ 2 nM | COc1cc(C(=O)N[C@@H]2CCCC[C@H]2O)ccc1Nc1ncc2c(n1)N(C1CCCCC1)CC(F)(F)C(=O)N2C (racemic) [Compound 48, 4-(9-cyclohexyl-7,7-difluoro-5-methyl-6-oxo-6,7,8,9-tetrahydro-5H-pyrimido[4,5-b][1,4]diazepin-2-ylamino)-N-((trans)-2-hydroxycyclohexyl)-3-methoxybenzamide] |
| > 2 nM | COc1cc(C(=O)NC2CC2)ccc1Nc1ncc2c(n1)N(C1CCCC1)CC(F)(F)C(=O)N2C [Compound 2, 4-(9-cyclopentyl-7,7-difluoro-5-methyl-6-oxo-6,7,8,9-tetrahydro-5H-pyrimido[4,5-b][1,4]diazepin-2-ylamino)-N-cyclopropyl-3-methoxybenzamide] |
| ≤ 2 nM | COc1cc(C(=O)NC2CCN(CCO)CC2)ccc1Nc1ncc2c(n1)N(C1CCCC1)CC(F)(F)C(=O)N2C [Compound 5, 4-(9-cyclopentyl-7,7-difluoro-5-methyl-6-oxo-6,7,8,9-tetrahydro-5H-pyrimido[4,5-b][1,4]diazepin-2-ylamino)-N-(1-(2-hydroxyethyl)piperidin-4-yl)-3-methoxybenzamide] |
| > 2 nM | CCN1CCC(NC(=O)c2ccc(Nc3ncc4c(n3)N(C3CCCC3)CC(F)(F)C(=O)N4C)c(OC)c2)CC1 [Compound 7, 4-(9-cyclopentyl-7,7-difluoro-5-methyl-6-oxo-6,7,8,9-tetrahydro-5H-pyrimido[4,5-b][1,4]diazepin-2-ylamino)-N-(1-ethylpiperidin-4-yl)-3-methoxybenzamide] |
| ≤ 2 nM | COc1cc(C(=O)N[C@@H]2CCCNC2)ccc1Nc1ncc2c(n1)N(C1CCCC1)CC(F)(F)C(=O)N2C [Compound 8, (R)-4-(9-cyclopentyl-7,7-difluoro-5-methyl-6-oxo-6,7,8,9-tetrahydro-5H-pyrimido[4,5-b][1,4]diazepin-2-ylamino)-3-methoxy-N-(piperidin-3-yl)benzamide] |
| ≤ 2 nM | COc1cc(C(=O)N[C@H]2CCCNC2)ccc1Nc1ncc2c(n1)N(C1CCCC1)CC(F)(F)C(=O)N2C [Compound 9, (S)-4-(9-cyclopentyl-7,7-difluoro-5-methyl-6-oxo-6,7,8,9-tetrahydro-5H-pyrimido[4,5-b][1,4]diazepin-2-ylamino)-3-methoxy-N-(piperidin-3-yl)benzamide] |
| ≤ 2 nM | COc1cc(C(=O)NC2CCNCC2)ccc1Nc1ncc2c(n1)N(C1CCCC1)CC(F)(F)C(=O)N2C [Compound 10, 4-(9-cyclopentyl-7,7-difluoro-5-methyl-6-oxo-6,7,8,9-tetrahydro-5H-pyrimido[4,5-b][1,4]diazepin-2-ylamino)-3-methoxy-N-(piperidin-4-yl)benzamide] |
| ≤ 2 nM | COc1cc(C(=O)NC2CCN(C(=O)CN(C)C)CC2)ccc1Nc1ncc2c(n1)N(C1CCCC1)CC(F)(F)C(=O)N2C [Compound 11, 4-(9-cyclopentyl-7,7-difluoro-5-methyl-6-oxo-6,7,8,9-tetrahydro-5H-pyrimido[4,5-b][1,4]diazepin-2-ylamino)-N-(1-(2-(dimethylamino)acetyl)piperidin-4-yl)-3-methoxybenzamide] |
| > 2 nM | COc1cc(C(=O)NC2CCN(C(=O)CN3CCCC3)CC2)ccc1Nc1ncc2c(n1)N(C1CCCC1)CC(F)(F)C(=O)N2C [Compound 12, 4-(9-cyclopentyl-7,7-difluoro-5-methyl-6-oxo-6,7,8,9-tetrahydro-5H-pyrimido[4,5-b][1,4]diazepin-2-ylamino)-3-methoxy-N-(1-(2-(pyrrolidin-1-yl)acetyl)piperidin-4-yl)benzamide] |
| ≤ 2 nM | COc1cc(C(=O)NC2CCCNCC2)ccc1Nc1ncc2c(n1)N(C1CCCC1)CC(F)(F)C(=O)N2C (stereo not drawn) [Compound 14, N-(Azepan-4-yl)-4-(9-cyclopentyl-7,7-difluoro-5-methyl-6-oxo-6,7,8,9-tetrahydro-5H-pyrimido[4,5-b][1,4]diazepin-2-ylamino)-3-methoxybenzamide] |
| ≤ 2 nM | COc1cc(C(=O)NC2CCCN(C)CC2)ccc1Nc1ncc2c(n1)N(C1CCCC1)CC(F)(F)C(=O)N2C (stereo not drawn) [Compound 15, 4-(9-cyclopentyl-7,7-difluoro-5-methyl-6-oxo-6,7,8,9-tetrahydro-5H-pyrimido[4,5-b][1,4]diazepin-2-ylamino)-3-methoxy-N-(1-methylazepan-4-yl)benzamide] |
| > 2 nM | CN(C)CCOc1ccc(Nc2ncc3c(n2)N(C2CCCC2)CC(F)(F)C(=O)N3C)cc1 [Compound 17, 9-cyclopentyl-2-(4-(2-(dimethylamino)ethoxy)phenylamino)-7,7-difluoro-5-methyl-8,9-dihydro-5H-pyrimido[4,5-b][1,4]diazepin-6(7H)-one] |
| > 2 nM | CN1C(=O)C(F)(F)CN(C2CCCC2)c2nc(Nc3ccc4c(c3)NC(=O)CO4)ncc21 [Compound 18, 6-(9-cyclopentyl-7,7-difluoro-5-methyl-6-oxo-6,7,8,9-tetrahydro-5H-pyrimido[4,5-b][1,4]diazepin-2-ylamino)-2H-benzo[b][1,4]oxazin-3(4H)-one] |
| > 2 nM | CN1C(=O)C(F)(F)CN(C2CCCC2)c2nc(Nc3ccc4c(c3)NC(=O)C4)ncc21 [Compound 19, 9-cyclopentyl-7,7-difluoro-5-methyl-2-(2-oxoindolin-6-ylamino)-8,9-dihydro-5H-pyrimido[4,5-b][1,4]diazepin-6(7H)-one] |
| > 2 nM | CN1C(=O)C(F)(F)CN(C2CCCC2)c2nc(Nc3ccc4[nH]ccc4c3)ncc21 [Compound 20, 2-(1H-Indol-5-ylamino)-9-cyclopentyl-7,7-difluoro-5-methyl-8,9-dihydro-5H-pyrimido[4,5-b][1,4]diazepin-6(7H)-one] |
| > 2 nM | CN1C(=O)C(F)(F)CN(C2CCCC2)c2nc(Nc3ccc4[nH]cc(C5=CCNCC5)c4c3)ncc21 [Compound 21, 9-Cyclopentyl-7,7-difluoro-5-methyl-2-(3-(1,2,3,6-tetrahydropyridin-4-yl)-1H-indol-5-ylamino)-8,9-dihydro-5H-pyrimido[4,5-b][1,4]diazepin-6(7H)-one] |
| ≤ 2 nM | CN1CCC(NC(=O)c2ccc(Nc3ncc4c(n3)N(C3CCCC3)CC(F)(F)C(=O)N4C)c(F)c2)CC1 [Compound 22, 4-(9-Cyclopentyl-7,7-difluoro-5-methyl-6-oxo-6,7,8,9-tetrahydro-5H-pyrimido[4,5-b][1,4]diazepin-2-ylamino)-3-fluoro-N-(1-methylpiperidin-4-yl)benzamide] |
| > 2 nM | CN1CCC(NC(=O)c2ccc(Nc3ncc4c(n3)N(C3CCCC3)CC(F)(F)C(=O)N4C)c(Cl)c2)CC1 [Compound 24, 3-Chloro-4-(9-cyclopentyl-7,7-difluoro-5-methyl-6-oxo-6,7,8,9-tetrahydro-5H-pyrimido[4,5-b][1,4]diazepin-2-ylamino)-N-(1-methylpiperidin-4-yl)benzamide] |
| > 2 nM | CN1CCC(NC(=O)c2ccc(Nc3ncc4c(n3)N(C3CCCC3)CC(F)(F)C(=O)N4C)c(OC(F)(F)F)c2)CC1 [Compound 25, 4-(9-Cyclopentyl-7,7-difluoro-5-methyl-6-oxo-6,7,8,9-tetrahydro-5H-pyrimido[4,5-b][1,4]diazepin-2-ylamino)-N-(1-methylpiperidin-4-yl)-3-(trifluoromethoxy)-benzamide] |
| > 2 nM | Cc1cc(C(=O)NC2CCN(C)CC2)ccc1Nc1ncc2c(n1)N(C1CCCC1)CC(F)(F)C(=O)N2C [Compound 26, 4-(9-Cyclopentyl-7,7-difluoro-5-methyl-6-oxo-6,7,8,9-tetrahydro-5H-pyrimido[4,5-b][1,4]diazepin-2-ylamino)-3-methyl-N-(1-methylpiperidin-4-yl)benzamide] |
| ≤ 2 nM | CCc1cc(C(=O)NC2CCN(C)CC2)ccc1Nc1ncc2c(n1)N(C1CCCC1)CC(F)(F)C(=O)N2C [Compound 27, 4-(9-Cyclopentyl-7,7-difluoro-5-methyl-6-oxo-6,7,8,9-tetrahydro-5H-pyrimido[4,5-b][1,4]diazepin-2-ylamino)-3-ethyl-N-(1-methylpiperidin-4-yl)benzamide] |
| > 2 nM | CCOc1cc(C(=O)NC2CCN(C)CC2)ccc1Nc1ncc2c(n1)N(C1CCCC1)CC(F)(F)C(=O)N2C [Compound 29, 4-(9-Cyclopentyl-7,7-difluoro-5-methyl-6-oxo-6,7,8,9-tetrahydro-5H-pyrimido[4,5-b][1,4]diazepin-2-ylamino)-3-ethoxy-N-(1-methylpiperidin-4-yl)benzamide] |
| > 2 nM | CN1CCC(NC(=O)c2ccc(Nc3ncc4c(n3)N(C3CCCC3)CC(F)(F)C(=O)N4C)c(C(F)(F)F)c2)CC1 [Compound 30, 4-(9-cyclopentyl-7,7-difluoro-5-methyl-6-oxo-6,7,8,9-tetrahydro-5H-pyrimido[4,5-b][1,4]diazepin-2-ylamino)-N-(1-methylpiperidin-4-yl)-3-(trifluoromethyl)benzamide] |
